Measurements reported in patent US20230382924A1, “MODULATORS OF CYSTIC FIBROSIS TRANSMEMBRANE CONDUCTANCE REGULATOR” (VERTEX PHARMACEUTICALS INCORPORATED, priority 2020, published 2023).
Where two headings read alike, the source gives them in different places.

Target: CFTR (Homo sapiens, UniProt P13569)
Test: Membrane Potential Dye, Enteroid Assay A
Assay type: cell-based
Details: for EC50: read-out: Ent. A EC50
Procedure: Base medium (ADF+++) consisted of Advanced DMEM/Ham's F12, 2 mM Glutamax, 10 mM HEPES, […] penicillin/streptomycin.
Bath 1 Buffer consisted of 1 mM MgCl2, 160 mM NaCl, 4.5 mM KCl, 10 mM HEPES, 10 mM Glucose, 2 mM CaCl2).
Chloride Free Buffer consisted of 1 mM Magnesium Gluconate, 2 mM Calcium Gluconate, 4.5 mM Potassium Gluconate, 160 mM Sodium Gluconate, 10 mM HEPES, 10 mM Glucose.
Bath 1 Dye Solution consisted of Bath 1 Buffer, 0.04% Pluronic F127, 20 μM Methyl Oxonol, 30 μM CaCCinh-A01, 30 μM Chicago Sky Blue.
Chloride Free Dye Solution consisted of Chloride Free Buffer, 0.04% Pluronic F127, 20 μM Methyl Oxonol, 30 μM CaCCinh-A01, 30 μM Chicago Sky Blue.
3. Enteroid Cell Harvesting and Seeding
Cells were recovered in cell recovery solution, collected by centrifugation at 650 rpm for 5 min at 4° C., resuspended in TryPLE and incubated for 5 min at 37° C. Cells were then collected by centrifugation at 650 rpm for 5 min at 4° C. and resuspended in IEMM containing 10 μM ROCK inhibitor (RI).
4. Membrane Potential Dye, Enteroid Assay A
Briefly, cells were washed 5 times in Bath 1 Buffer. Bath 1 Dye Solution was added, and the cells were incubated for 25 min at room temperature. Following dye incubation, cells were washed 3 times in Chloride Free Dye Solution. Chloride transport was initiated by addition of Chloride Free Dye Stimulation Solution and the fluorescence signal was read for 15 min. […] Chloride transport was then expressed as a percentage of the chloride transport following treatment with 3 μM N-[(6-amino-2-pyridyl)sulfonyl]-6-(3-fluoro-5-isobutoxy-phenyl)-2-[(4S)-2,2,4-trimethylpyrrolidin-1-yl]pyridine-3-carboxamide, 3 μM (R)-1-(2,2-difluorobenzo[d][1,3]dioxol-5-yl)-N-(1-(2,3-dihydroxypropyl)-6-fluoro-2-(1-hydroxy-2-methylpropan-2-yl)-1H-indol-5-yl)cyclopropanecarboxamide and 300 nM acute N-[2,4-bis(1,1-dimethylethyl)-5-hydroxyphenyl]-1,4-dihydro-4-oxoquinoline-3-carboxamide triple combination control (% Activity).

Chain of CFTR (P13569 with tags, fused parts or gaps DEL508-508): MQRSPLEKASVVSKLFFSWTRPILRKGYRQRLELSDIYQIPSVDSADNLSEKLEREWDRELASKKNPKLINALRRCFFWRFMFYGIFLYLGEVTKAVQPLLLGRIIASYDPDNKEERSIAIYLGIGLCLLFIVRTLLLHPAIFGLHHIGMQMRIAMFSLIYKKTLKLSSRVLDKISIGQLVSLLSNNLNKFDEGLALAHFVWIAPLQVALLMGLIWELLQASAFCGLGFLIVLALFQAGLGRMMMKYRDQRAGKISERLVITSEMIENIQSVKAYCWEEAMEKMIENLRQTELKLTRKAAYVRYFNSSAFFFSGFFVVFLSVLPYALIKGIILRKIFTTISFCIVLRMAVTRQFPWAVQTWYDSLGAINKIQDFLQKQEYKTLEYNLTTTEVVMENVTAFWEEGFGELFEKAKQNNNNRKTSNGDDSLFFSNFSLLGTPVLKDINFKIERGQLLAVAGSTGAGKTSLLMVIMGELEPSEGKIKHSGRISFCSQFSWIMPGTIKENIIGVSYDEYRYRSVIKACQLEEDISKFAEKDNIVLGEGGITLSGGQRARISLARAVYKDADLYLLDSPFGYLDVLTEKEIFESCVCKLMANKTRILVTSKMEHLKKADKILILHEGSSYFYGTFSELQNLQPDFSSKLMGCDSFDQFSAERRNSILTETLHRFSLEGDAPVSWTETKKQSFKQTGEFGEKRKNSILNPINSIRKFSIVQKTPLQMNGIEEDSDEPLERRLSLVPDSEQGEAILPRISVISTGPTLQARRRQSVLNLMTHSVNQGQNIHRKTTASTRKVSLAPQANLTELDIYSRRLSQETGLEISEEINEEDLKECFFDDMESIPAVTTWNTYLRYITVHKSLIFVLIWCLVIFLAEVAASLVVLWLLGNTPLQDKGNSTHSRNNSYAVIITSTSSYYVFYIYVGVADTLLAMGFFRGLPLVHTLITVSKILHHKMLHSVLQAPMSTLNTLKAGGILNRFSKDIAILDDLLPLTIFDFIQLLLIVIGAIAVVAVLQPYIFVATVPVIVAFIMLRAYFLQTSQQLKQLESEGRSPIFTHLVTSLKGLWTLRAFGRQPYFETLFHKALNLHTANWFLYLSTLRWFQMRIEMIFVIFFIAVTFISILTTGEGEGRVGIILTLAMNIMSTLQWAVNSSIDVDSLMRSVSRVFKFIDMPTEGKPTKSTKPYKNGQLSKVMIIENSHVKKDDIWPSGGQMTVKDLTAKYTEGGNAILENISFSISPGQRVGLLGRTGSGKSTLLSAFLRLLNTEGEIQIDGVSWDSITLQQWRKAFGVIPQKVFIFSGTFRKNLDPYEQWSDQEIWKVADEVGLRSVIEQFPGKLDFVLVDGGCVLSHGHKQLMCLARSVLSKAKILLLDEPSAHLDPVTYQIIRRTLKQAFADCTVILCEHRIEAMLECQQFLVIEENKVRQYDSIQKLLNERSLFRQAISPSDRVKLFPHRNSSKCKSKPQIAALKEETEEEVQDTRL

SMILES	Ent. A Max Activity (Table 9)	EC50 (Table 9)	Ent. A Max Activity (Table 8)	other results
Cc1cccc(C)c1-c1cc2nc(n1)NS(=O)(=O)c1cccc(c1)C(=O)N[C@@H](CC(F)(F)F)CO2 (single isomer, unassigned) [Compound 94, 6-(2,6-dimethylphenyl)-11-(2,2,2-trifluoroethyl)-9-oxa-2λ^6-thia-3,5,12,19-tetraazatricyclo[12.3.1.14,8]nonadeca-1(17),4(19),5,7,14(18),15-hexaene-2,2,13-trione]	+++ (+++ is >60%)	1000 to 3000 nM	–	–
Cc1cccc(C)c1-c1cc2nc(n1)NS(=O)(=O)c1cccc(c1)C(=O)N[C@@H](CC13CC4CC(CC(C4)C1)C3)CO2 (single isomer, unassigned) [Compound 111, 11-(1-adamantylmethyl)-6-(2,6-dimethylphenyl)-2,2-dioxo-9-oxa-2λ^6-thia-3,5,12,19-tetrazatricyclo[12.3.1.14,8]nonadeca-1(18),4(19),5,7,14,16-hexaen-13-one]	++ (++ is 30-60%)	< 1000 nM	–	–
Cc1cccc(C)c1-c1cc2nc(n1)NS(=O)(=O)c1cccc(c1)C(=O)NC[C@H](c1ccc(CCC(C)(C)C)cc1)O2 (stereo in doubt) [Compound 148]	++ (++ is 30-60%)	< 1000 nM	–	–
Cc1cc(C(C)(C)C)ccc1[C@H]1CNC(=O)c2cccc(c2)S(=O)(=O)Nc2nc(cc(-c3c(C)cccc3C)n2)O1 (stereo in doubt) [Compound 156]	–	–	+ (+ is <30%)	–
Cc1cccc(C)c1-c1cc2nc(n1)NS(=O)(=O)[C@H]1CCCN(C1)C(=O)N[C@H](CC1CCCCC1)CO2 (stereo in doubt) [Compound 159]	–	–	+ (+ is <30%)	–
Cc1cccc(C)c1-c1cc2nc(n1)NS(=O)(=O)c1cccc(c1)C(=O)N[C@@H](C(CC(C)C)c1ccccc1)CO2 (stereo in doubt) [Compound 180]	++ (++ is 30-60%)	< 1000 nM	–	–
Cc1cccc(C)c1-c1cc2nc(n1)NS(=O)(=O)c1cccc(c1)C(=O)N[C@@H](C(CC(C)C)c1ccccc1)CO2 (stereo in doubt) [Compound 182]	++ (++ is 30-60%)	< 1000 nM	–	–
Cc1cccc(C)c1-c1cc2nc(n1)NS(=O)(=O)c1cccc(c1)C(=O)N[C@@H](CCC(F)(F)F)CO2 (stereo in doubt) [Compound 189]	–	–	+ (+ is <30%)	EC50 (Table 8): 1000 to 3000 nM
Cc1cccc(C)c1-c1cc2nc(n1)NS(=O)(=O)c1cccc(c1)C(=O)N[C@H](CCC(F)(F)F)CO2 (stereo in doubt) [Compound 190]	–	–	+++ (+++ is >60%)	EC50 (Table 8): < 1000 nM
Cc1cccc(C)c1-c1cc2nc(n1)NS(=O)(=O)c1cccc(c1)C(=O)N[C@H](CC1CCOCC1)CO2 (stereo in doubt) [Compound 191]	–	–	–	Ent. A Max Activity (Enteroid Assay A): +++ (+++ is >600%); EC50 (Enteroid Assay A): 3000 to 30000 nM
Cc1cccc(C)c1-c1cc2nc(n1)NS(=O)(=O)c1cccc(c1)CNC1C[C@@H](CN(C(=O)OCc3ccccc3)C1)O2 (stereo in doubt) [Compound 192]	–	–	–	Ent. A Max Activity (Enteroid Assay A): ++ (++ is 30-60%); EC50 (Enteroid Assay A): 1000 to 3000 nM
Cc1cccc(C)c1-c1cc2nc(n1)NS(=O)(=O)c1cccc(c1)CNC1C[C@@H](CN(C(=O)OCc3ccccc3)C1)O2 (stereo in doubt) [Compound 193]	–	–	–	Ent. A Max Activity (Enteroid Assay A): ++ (++ is 30-60%); EC50 (Enteroid Assay A): 1000 to 3000 nM
Cc1cccc(C)c1-c1cc2nc(n1)NS(=O)(=O)c1cccc(c1)C(=O)N[C@@H](CC1CCC1)[C@@H](c1ccc(C(C)(C)C)cc1)O2 (stereo in doubt) [Compound 229]	–	–	+++ (+++ is >60%)	EC50 (Table 8): < 1000 nM
Cc1cccc(C)c1-c1cc2nc(n1)NS(=O)(=O)c1cccc(c1)C(=O)N[C@@H]1Cc3ccccc3[C@@H]1O2 (stereo in doubt) [Compound 246]	–	–	+++ (+++ is >60%)	EC50 (Table 8): < 1000 nM
Cc1ccccc1[C@H]1CNC(=O)c2cccc(c2)S(=O)(=O)Nc2nc(cc(-c3c(C)cccc3C)n2)O1 (stereo in doubt) [Compound 277]	–	–	+ (+ is <30%)	–
Cc1cccc(C)c1-c1cc2nc(n1)NS(=O)(=O)c1cccc(c1)C(=O)N[C@H](CC1(C(F)(F)F)CC1)CO2 (stereo in doubt) [Compound 289]	–	–	–	EC50 (Table 8): 1000 to 3000 nM
Cc1cccc(C)c1-c1cc2nc(n1)NS(=O)(=O)c1cccc(c1)C(=O)NC1CCCC[C@@H]1O2 (stereo in doubt) [Compound 485]	–	–	–	EC50 (Enteroid Assay A): 1000 to 3000 nM
Cc1cccc(C)c1-c1cc2nc(n1)NS(=O)(=O)c1cccc(c1)C(=O)N[C@@H]1CCCCC1O2 (stereo in doubt) [Compound 487]	–	–	–	Ent. A Max Activity (Enteroid Assay A): +++ (+++ is >600%); EC50 (Enteroid Assay A): < 1000 nM
Cc1cccc(C)c1-c1cc2nc(n1)NS(=O)(=O)c1cccc(c1)C(=O)NCC(c1ccc(C3CCC3)cc1)O2 (stereo not drawn) [Compound 12, 10-(4-Cyclobutylphenyl)-6-(2,6-dimethylphenyl)-2,2-dioxo-9-oxa-2λ^6-thia-3,5,12,19-tetrazatricyclo[12.3.1.14,8]nonadeca-1(18),4(19),5,7,14,16-hexaen-13-one]	+++ (+++ is >60%)	< 1000 nM	–	–
Cc1cccc(C)c1-c1cc2nc(n1)NS(=O)(=O)c1cccc(c1)C(=O)NCC(c1ccc([Si](C)(C)C)cc1)O2 (stereo not drawn) [Compound 15, 6-(2,6-Dimethylphenyl)-2,2-dioxo-10-(4-trimethylsilylphenyl)-9-oxa-2λ^6-thia-3,5,12,19-tetrazatricyclo[12.3.1.14,8]nonadeca-1(18),4(19),5,7,14,16-hexaen-13-one]	–	< 1000 nM	–	–
Cc1cccc(C)c1-c1cc2nc(n1)NS(=O)(=O)c1cccc(c1)C(=O)NCC(c1ccc(P(C)(C)=O)cc1)O2 (stereo not drawn) [Compound 21, 6-(2,6-Dimethylphenyl)-10-(4-dimethylphosphorylphenyl)-2,2-dioxo-9-oxa-2λ^6-thia-3,5,12,19-tetrazatricyclo[12.3.1.14,8]nonadeca-1(18),4(19),5,7,14,16-hexaen-13-one]	–	–	+ (+ is <30%)	–
Cc1cccc(C)c1-c1cc2nc(n1)NS(=O)(=O)c1cccc(c1)C(=O)NCC(c1ccc(C(F)(F)C(F)(F)F)cc1)O2 (stereo not drawn) [Compound 22, 6-(2,6-Dimethylphenyl)-2,2-dioxo-10-[4-(1,1,2,2,2-pentafluoroethyl)phenyl]-9-oxa-2λ^6-thia-3,5,12,19-tetrazatricyclo[12.3.1.14,8]nonadeca-1(18),4(19),5,7,14,16-hexaen-13-one]	+++ (+++ is >60%)	< 1000 nM	–	–
Cc1cccc(C)c1-c1cc2nc(n1)NS(=O)(=O)c1cccc(c1)C(=O)NCC(c1ccc(/C=C/C(C)(C)C)cc1)O2 (stereo not drawn) [Compound 23, 10-[4-[(E)-3,3-Dimethylbut-1-enyl]phenyl]-6-(2,6-dimethylphenyl)-2,2-dioxo-9-oxa-2λ^6-thia-3,5,12,19-tetrazatricyclo[12.3.1.14,8]nonadeca-1(18),4(19),5,7,14,16-hexaen-13-one]	+++ (+++ is >60%)	< 1000 nM	–	–

Continued, in another order:

Ent. A Max Activity (Table 9)	EC50 (Table 9)	Ent. A Max Activity (Table 8)	SMILES	other results
++ (++ is 30-60%)	3000 to 30000 nM	–	CCC(C)(C)C(=O)N1CC[C@H]2NC(=O)c3cccc(c3)S(=O)(=O)Nc3nc(cc(-c4c(C)cccc4C)n3)OC2C1 (stereo in doubt) [Compound 371]	–
++ (++ is 30-60%)	3000 to 30000 nM	–	Cc1cccc(C)c1-c1cc2nc(n1)NS(=O)(=O)c1cccc(c1)C(=O)N[C@@H]1CCN(C(=O)CC(C)(C)C)C[C@@H]1O2 (stereo in doubt) [Compound 380]	–
+++ (+++ is >60%)	< 1000 nM	–	Cc1cccc(C)c1-c1cc2nc(n1)NS(=O)(=O)c1cccc(c1)C(=O)N[C@@H]1CCN(Cc3ccccc3)C[C@H]1O2 (stereo in doubt) [Compound 382]	–
+ (+ is <30%)	3000 to 30000 nM	–	Cc1cccc(C)c1-c1cc2nc(n1)NS(=O)(=O)c1cccc(c1)C(=O)N[C@@H]1CCN(C3CC4(CCCC4)C3)C[C@H]1O2 (stereo in doubt) [Compound 385]	–
–	–	+++ (+++ is >60%)	Cc1cccc(C)c1-c1cc2nc(n1)NS(=O)(=O)c1cccc(c1)C(=O)NC[C@@H](c1ccc(C(C)(F)F)cc1)O2 (stereo in doubt) [Compound 399]	EC50 (Table 8): < 1000 nM
–	–	+ (+ is <30%)	Cc1cccc(C)c1-c1cc2nc(n1)NS(=O)(=O)c1cccc(c1)C(=O)NC[C@@H](c1ccc(C(C)(F)F)cc1)O2 (stereo in doubt) [Compound 400]	EC50 (Table 8): 1000 to 3000 nM
–	–	+ (+ is <30%)	Cc1cccc(C)c1-c1cc2nc(n1)NS(=O)(=O)c1cccc(c1)C(=O)NC[C@H](c1ccc(C(F)(F)F)cc1)O2 (stereo in doubt) [Compound 402]	EC50 (Table 8): 3000 to 30000 nM
–	–	+ (+ is <30%)	Cc1cccc(C)c1-c1cc2nc(n1)NS(=O)(=O)c1cccc(c1)C(=O)NC[C@@H](CN1CCCCC1)O2 (stereo in doubt) [Compound 409]	–
